Reference: PMC9258321, “Structure-guided design of CPPC-paired disulfide-rich peptide libraries for ligand and drug discovery” (Chemical Science, 2022)
Bridge positions count the residues as written; N and C are the ends. Peptide text beside a SMILES is read from it. * marks the point of attachment. FITC = O=C1OC2(c3ccc(O)cc3Oc3cc(O)ccc32)c2ccc(NC(=S)*)cc21; βAla = NCCC(=O)O

Test system: CD28 expressed on the surface of HEK293T cells
Test: Laser confocal cell imaging, labeling CD28 on HEK293T cells
Type: cell-based
Details: HEK293T cells transfected with mCherry-CD28 vs mCherry control; 1 μM peptide in DMEM, 30 min, washed; confocal colocalization
Description: Finally, we examined the specific binding capability of drp8 to CD28 expressed on the surface of the cells. HEK293T cells transfected with a plasmid expressing the extracellular domain of CD28 fused with an extracellular-targeting signaling sequence, a fluorescent mCherry tag, and a transmembrane domain was constructed for the experiments. Briefly, the transfected cells were incubated with the fluorescein-labeled drp8 for 30 min, followed by washing with culture media to remove the unbound peptide. Confocal fluorescence images were then recorded (Fig. 5d), showing the colocalization of fluorescence from the mCherry tag and the labeled peptide.
Surface plasmon resonance (SPR) assay
The affinity of peptides to Keap1 was measured using Biacore T200 (GE healthcare) at 25℃. […]
NMR samples were dissolved in 80% perdeuterated acetonitrile and 20% H2O for drp1, 75% perdeu-terated acetonitrile and […] for drp2-a, 60% perdeuterated acetonitrile and 40% H2O for drp8, 50% perdeuterated acetonitrile and 50% H2O for drp3 and drp6, 40% perdeuterated acetonitrile and 60% H2O for drp2-b and drp4 (The solution conditions depend on the dispersion of cross -peaks). […] Two dimensional (2D) 1H, 15N/13C HSQC spectra were recorded to obtain chemical shifts of heavy atoms in backbone and side-chains. […]

CC(C)C[C@@H]1NC(=O)CNC(=O)[C@H](CCC(=O)O)NC(=O)[C@@H]2CSSC[C@H](NC(=O)[C@H](CC(N)=O)NC(=O)[C@H](CC(N)=O)NC1=O)C(=O)N[C@@H](Cc1c[nH]c3ccccc13)C(=O)N[C@@H](Cc1ccccc1)C(=O)N[C@@H](C(C)C)C(=O)N[C@@H](CCC(=O)O)C(=O)N[C@@H](C)C(=O)N[C@H]1CSSC[C@H](NC(=O)CNC(=O)CCNC(=S)Nc3ccc4c(c3)C(=O)OC43c4ccc(O)cc4Oc4cc(O)ccc43)C(=O)N3CCC[C@H]3C(=O)N3CCC[C@H]3C(=O)N[C@@H](CSSC[C@@H](C(N)=O)NC(=O)[C@@H]3CCCN3C(=O)[C@@H]3CCCN3C1=O)C(=O)N1CCC[C@H]1C(=O)N[C@@H](CCCNC(=N)N)C(=O)N[C@@H](CCC(=O)O)C(=O)N[C@@H](Cc1c[nH]cn1)C(=O)N[C@@H](CCC(=O)O)C(=O)N[C@@H](CC(C)C)C(=O)N[C@@H](C(C)C)C(=O)N[C@@H](C)C(=O)N[C@@H](C(C)C)C(=O)N1CCC[C@H]1C(=O)N2 [FITC-drp8] ({FITC-βAla}-GCPPCPREHELVAVPCEGLNNCWFVEACPPC-NH2; disulfide 2-28, 5-31, 16-22)
binding to CD28 on the cell surface (in words): can specifically bind with CD28 on the live cell surface
